# Results taken from patent EP2490029A1, “Vancomycin analysis” (Université Catholique de Louvain, priority 2011, dated 2012).
# Assays:
# Nα(Ac)-L-Lys-D-Ala-D-Ala = experiment: FTIR-ATR biosensor binding of vancomycin to immobilized peptide receptor; conditions: for vancomycin binding: 50 µg/mL; for Kd: single site binding isotherm, R^2 = 0.99, ± standard error
# Protocol: On the thus functionalized ATR element a peptide was bound. Peptide binding onto the device was obtained in one channel of measurement at a time by incubation for 3 hours of N-α-acetyl-Lys-D-Ala-D-Ala peptide, or another peptide as provided in Figure 2, at a concentration of 2 mg/mL in phosphate buffered saline (PBS) at room temperature. The measurement channel was then rinsed with milliQ water for 30 min.
# The binding of the peptide was monitored by FTIR-ATR spectroscopy by using the BIA-ATR device. Attenuated Total Reflection Fourier Transformed Infrared (ATR-FTIR) Spectra were obtained on a Brüker IFS55 FTIR spectrophotometer (Ettlingen, Germany) equipped with a MCT detector (broad band 12000-420 cm^-1, liquid N2 cooled, 24h hold time) at a resolution of 8 cm^-1 with an aperture of 3.5 mm and acquired in the double-sided, forward-backward mode. Two levels of zero filling of the interferogram prior to Fourier transform allowed encoding the data every 1 cm^-1. The spectrometer was continuously purged with dry air (Whatman 75-62, Haverhill, MA, USA). Triangular-shaped germanium crystals (4.8 x 4.8 x 45 mm^3) were purchased from Biosentech (Belgium) and accommodated on the beam condenser from a Golden Gate Micro-ATR from Specac. A top plate with a groove fitting the crystal was used in replacement of the diamond-bearing plate (WOW Company, Belgium). With this geometry, a single reflection was obtained and more than 10 lanes can be used on a crystal.
# Using a biosensor constructed in Example 1, a solution of vancomycin in pure water (obtained from the laboratory MilliQ system) at a concentration of at 50 µg/mL is passed over one channel of the crystal at a flow-rate of 20 µl/min. FTIR-ATR spectra were recorded continuously and the vancomycin binding is monitored by following the appearance of its characteristic signal at 1230 cm^-1. This monitoring of this signal is advantageous as it is isolated in the spectra, i.e. not superimposed to other signals due to ligand and/or receptor. The intensity of the peak at 1230 cm^-1 thus allowed the quantitative measurement of vancomycin binding.
# The N-α(Ac)-L-Lys-D-Ala-D-Ala biosensor as described in Example 1 was used. A solution of vancomycin in phosphate buffered saline (50 µg/mL) was used in the binding assay. The quantitative analysis was performed by measuring the surface on the IR spectra comprised between 1253 and 1218 cm^-1. The spectra were recorded every 30 sec during 5 min. […] The results are depicted in Figure 1.
# The unexpected effect on the binding affinity of vancomycin versus X-D-Ala-D-Ala receptor immobilized on the ATR optical element, has been further observed by using the following detection media: 3 mM aqueous solution of Na2HPO4, 10 mM aqueous solution of Na2HPO4, 154 mM aqueous solution of NaCl, and a PBS solution made from 3 mM Na2HPO4 and 50 mM NaCl.
# The Nα(Ac)-L-Lys-D-Ala-D-Ala biosensor described in Example 1 was used. The assays were performed three times successively using the same channel, and this has been repeated at three different days (n = 9) using another channel for each day. Solutions of vancomycin in 5% glucose at various concentrations (from 0 to 25 µg/mL) were passed over the crystal at a flow rate of 20 µL/min. The vancomycin binding was analyzed by the integration of the peak at 1230 cm^-1 (10 spectra recorded every 30 sec), and normalized by referring to the 25 µg/mL concentration.
# The spiked dialyzed serum samples were flown over a measurement channel on which the Nα(Ac)-L-Lys-D-Ala-D-Ala had been attached as described before in Example 1. The absorption band between 1259 and 1213 cm^-1 was quantified for each vancomycin concentration. The area of the band was reported as a function of vancomycin concentration. […] From the data reported in Figure 4 it follows that vancomycin binding can be monitored with precision in a concentration range which is relevant for medical application.
# [1] = test system: N-α-acetyl-Lys-D-ala-D-ala; experiment: Quartz crystal microbalance (QCM) detection of vancomycin on grafted peptide receptor; type: binding; conditions: water/glucose solution compared with water; 1 µM and 40 µM; flow rate 40 µL/min
# Protocol: Quartz crystal microbalance experiments were performed using SRS Stanford Research Systems (QCM 200 5MHz). The surfaces of gold-plated quartz crystal on chips were prepared as follows: gold-plated quartz crystals were initially immersed in a piranha solution (70/30) for 3 minutes to regenerate the surfaces. The resulting crystals were repeatedly and intensively rinsed with water. The crystals were subsequently grafted with mPEG thiols (O-(2-Mercaptoethyl)-O'-methyl-hexa(ethylene glycol) (polypure) 10^-3 M in ethanol. The grafted crystals were subsequently rinsed with ethanol in an ultrasonic bath, and dried with N2. The grafted crystals were subsequently grafted with NHS ester succinimidyl, 2 mM in acetonitrile sprayed on the surfaces and the surfaces were placed in front of a UV lamp during 2 hours. The functionalized surfaces of the crystals were subsequently rinsed with acetonitrile in an ultrasonic bath; dried with N2, and then subsequently grafted with N-α-acetyl-Lys-D-ala-D-ala in pure water and in water with 5% of glucose (vol.).
# All QCM experiments used a flow rate of 40 µL/min. The quality of all the grafting has been tested at each step, by contact angle measurements and IR spectra. All of them were satisfactory. Figures 6, 7 and 8 represent QCM data plot showing delta frequency (MHz) change over time of vancomycin detection. […]
compound,measurement,setting,value
CN[C@H](CC(C)C)C(=O)N[C@H]1C(=O)N[C@@H](CC(N)=O)C(=O)N[C@H]2C(=O)N[C@H]3C(=O)N[C@H](C(=O)N[C@H](C(=O)O)c4cc(O)cc(O)c4-c4cc3ccc4O)[C@H](O)c3ccc(c(Cl)c3)Oc3cc2cc(c3O[C@@H]2O[C@H](CO)[C@@H](O)[C@H](O)[C@H]2O[C@H]2C[C@](C)(N)[C@H](O)[C@H](C)O2)Oc2ccc(cc2Cl)[C@H]1O [vancomycin],amount of vancomycin detected,"Nα(Ac)-L-Lys-D-Ala-D-Ala; 50 µg/mL in phosphate buffered saline, compared to pure water, IR area 1253-1218 cm^-1",very weak
same,vancomycin binding,"Nα(Ac)-L-Lys-D-Ala-D-Ala; effect of phosphate (3 mM or 10 mM Na2HPO4, PBS) in detection medium",totally prevents
same,vancomycin binding,Nα(Ac)-L-Lys-D-Ala-D-Ala; effect of sodium chloride at physiological concentration (154 mM NaCl),partially inhibited
same,Kd,"Nα(Ac)-L-Lys-D-Ala-D-Ala; in 5% glucose, band area 1259-1213 cm^-1",13.7 ± 1.8 µM
same,Kd,Nα(Ac)-L-Lys-D-Ala-D-Ala; in human serum dialyzed against 5% glucose,7.3 ± 0.8 µM
same,vancomycin binding onto the receptor,Nα(Ac)-L-Lys-D-Ala-D-Ala; in pure water,maximal
same,delta frequency shift,[1],greater delta frequency was always observed in the presence of glucose
